Results as given in patent publication US5693805A, “Process to derivatives of piperizinylcamphorsulfonyl oxytocin antagonists” (Merck & Co., Inc., priority 1995, dated 1997).

Target: T1, uterine OT receptors (Rattus norvegicus, UniProt P70536)
T1 construct: from tissue; host or cells: uterus of DES-treated rats, crude membrane preparation
T1 sequence (P70536 1-388): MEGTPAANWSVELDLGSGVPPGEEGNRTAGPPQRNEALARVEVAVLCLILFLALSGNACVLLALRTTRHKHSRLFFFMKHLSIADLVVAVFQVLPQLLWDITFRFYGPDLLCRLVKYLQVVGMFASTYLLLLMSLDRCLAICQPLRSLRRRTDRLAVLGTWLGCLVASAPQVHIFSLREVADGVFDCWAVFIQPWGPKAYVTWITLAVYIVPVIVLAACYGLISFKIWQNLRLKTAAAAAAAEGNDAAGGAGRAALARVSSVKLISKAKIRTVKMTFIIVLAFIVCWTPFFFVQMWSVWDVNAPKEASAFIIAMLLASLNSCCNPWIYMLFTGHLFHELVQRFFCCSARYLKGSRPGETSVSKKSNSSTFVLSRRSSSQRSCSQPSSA
Assay: [3H]Oxytocin radioligand binding assay to uterine OT receptors (crude membrane preparation of uteri from DES-treated rats)
Settings: competition at equilibrium, 60 min, 22° C., 1 nM [3H]OT, pH 7.4; Ki = IC50/1+c/Kd, Kd [3H]OT (uterus) 0.7 nM; three to six separate determinations
Protocol: The high affinity binding of [^3 H] […] Competition studies were conducted at equilibrium (60 minutes; 22° C.) using 1 nM[^3 H]OT in the following assay buffer: 50 mM Tris-HCl, 5 mM MgCl2, and 0.1% BSA, pH 7.4.

Cc1ccccc1N1CCN(S(=O)(=O)C[C@]23CC[C@H](C[C@@H]2NC(=O)[C@@H](N)CCS(C)(=O)=O)C3(C)C)CC1 [Compound I]
Ki: 7.7 nM
